Results published in publication PMC8253220, “Molecular design, synthesis and in vitro biological evaluation of thienopyrimidine–hydroxamic acids as chimeric kinase HDAC inhibitors: a challenging approach to combat cancer” (Journal of Enzyme Inhibition and Medicinal Chemistry, 2021).
Several values for one entry are separate records, joined by “and”; a condition that tells them apart may be missing. Equal values may be shown once.

Experiments:
T-47D = test: NCI one-dose screen; type: cell-based, human; settings: Breast T-47D, 10 µM single dose
How it was run: (§1)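 At 10 μM, a single concentration, compounds were evaluated for antiproliferative effect in the NCI 60-line screen, with growth expressed relative to untreated control cells.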

MDA-MB-435 = test: NCI one-dose screen; type: cell-based, human; settings: Melanoma MDA-MB-435, 10 µM single dose
How it was run: as §1

A549/ATCC = test: NCI one-dose screen; type: cell-based, human; settings: NSCLC A549/ATCC, 10 µM single dose
How it was run: as §1

HS 578T = test: NCI one-dose screen; type: cell-based, human; settings: Breast HS 578T, 10 µM single dose
How it was run: as §1

SR = test: NCI one-dose screen; type: cell-based, human; settings: Leukemia SR, 10 µM single dose
How it was run: as §1

MOLT-4 = test: NCI one-dose screen; type: cell-based, human; settings: Leukemia MOLT-4, 10 µM single dose
How it was run: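 Growth of treated cells is compared with untreated controls to give percent inhibition. Compounds are applied once at 10 μM across the NCI 60 cancer cell panel.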

UACC-62 = test: NCI one-dose screen; type: cell-based, human; settings: Melanoma UACC-62, 10 µM single dose
How it was run: as §1

SF-295 = test: NCI one-dose screen; type: cell-based, human; settings: CNS SF-295, 10 µM single dose
How it was run: as §1

HOP-92 = test: NCI one-dose screen; type: cell-based, human; settings: NSCLC HOP-92, 10 µM single dose
How it was run: as §1

OVCAR-8 = test: NCI one-dose screen; type: cell-based, human; settings: Ovarian OVCAR-8, 10 µM single dose
How it was run: as §1

MALME-3M = test: NCI one-dose screen; type: cell-based, human; settings: Melanoma MALME-3M, 10 µM single dose
How it was run: as §1

SN12C = test: NCI one-dose screen; type: cell-based, human; settings: Renal SN12C, 10 µM single dose
How it was run: as §1

EGFR = EGFR (Homo sapiens, UniProt P00533); test: In vitro EGFR tyrosine kinase inhibitory assay (Z'-LYTE, SelectScreen); type: biochemical; settings: for Mean % inhibition EGFR / inhibition at 10 µM: 10 µM single dose
How it was run: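 Z'-LYTE fluorescence coupled-enzyme format, read-out based on differential protease cleavage of phosphorylated vs non-phosphorylated peptide. Compounds screened at 10 µM single dose for % inhibition, then selected ones tested at 0.1 nM–10 µM for IC50 by curve fitting.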

Hela nuclear extracts = test: Hela nuclear extract HDAC inhibitor assay (BPS Bioscience); type: biochemical; settings: 10 µM
How it was run: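 Percent activity was derived from fluorescence (ex 360, em 460 nm) relative to no-compound (100%) and no-extract (0%) wells. Reactions ran in duplicate for 60 min at 37 °C, combining diluted HeLa nuclear extract, HDAC Substrate 3 ([…]), BSA and compound in 1% DMSO, followed by developer.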

EGFR, sequence (P00533 25-1210): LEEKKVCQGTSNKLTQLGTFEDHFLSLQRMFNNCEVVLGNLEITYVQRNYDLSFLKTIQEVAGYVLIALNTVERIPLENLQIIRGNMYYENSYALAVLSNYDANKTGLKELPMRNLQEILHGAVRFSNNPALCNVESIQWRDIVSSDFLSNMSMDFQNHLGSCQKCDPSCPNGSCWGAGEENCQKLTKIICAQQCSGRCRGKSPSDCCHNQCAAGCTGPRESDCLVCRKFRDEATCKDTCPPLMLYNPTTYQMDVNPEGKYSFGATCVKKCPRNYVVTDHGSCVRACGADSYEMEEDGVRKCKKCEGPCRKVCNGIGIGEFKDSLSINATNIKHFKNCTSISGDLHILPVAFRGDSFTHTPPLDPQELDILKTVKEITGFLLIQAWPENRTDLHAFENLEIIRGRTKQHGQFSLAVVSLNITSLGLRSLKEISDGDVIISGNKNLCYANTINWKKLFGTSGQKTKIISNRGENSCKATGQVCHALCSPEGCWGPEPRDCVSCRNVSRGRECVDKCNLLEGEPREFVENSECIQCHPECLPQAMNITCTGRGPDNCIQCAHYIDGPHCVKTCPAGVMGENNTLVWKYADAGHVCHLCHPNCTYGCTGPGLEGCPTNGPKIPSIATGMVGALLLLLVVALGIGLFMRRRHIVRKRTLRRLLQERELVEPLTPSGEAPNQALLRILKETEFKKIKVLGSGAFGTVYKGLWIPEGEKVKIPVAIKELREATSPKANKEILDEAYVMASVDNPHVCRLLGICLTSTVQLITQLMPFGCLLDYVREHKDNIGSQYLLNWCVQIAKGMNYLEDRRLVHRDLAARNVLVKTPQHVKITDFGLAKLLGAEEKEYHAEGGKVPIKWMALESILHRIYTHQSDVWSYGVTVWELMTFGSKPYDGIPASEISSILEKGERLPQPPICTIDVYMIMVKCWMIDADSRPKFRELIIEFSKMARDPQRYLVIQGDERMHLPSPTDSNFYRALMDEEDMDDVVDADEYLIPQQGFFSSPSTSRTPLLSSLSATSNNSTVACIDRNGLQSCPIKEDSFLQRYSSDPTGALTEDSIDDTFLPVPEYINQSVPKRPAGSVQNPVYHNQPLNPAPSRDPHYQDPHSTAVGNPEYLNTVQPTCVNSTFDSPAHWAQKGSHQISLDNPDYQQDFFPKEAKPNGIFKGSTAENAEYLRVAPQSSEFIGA

Row | SMILES | Growth Percent (T-47D) | Growth Percent (MDA-MB-435) | Growth Percent (A549/ATCC) | Growth Percent (HS 578T) | Growth Percent (SR) | Growth Percent (MOLT-4) | Growth Percent (UACC-62) | Growth Percent (SF-295) | Growth Percent (HOP-92) | Growth Percent (OVCAR-8) | Growth Percent (MALME-3M) | Growth Percent (SN12C) | Mean % inhibition EGFR (EGFR) | inhibition at 10 µM (EGFR) | % Inhibition Hela Nuclear Extracts (Hela nuclear extracts) | also measured
1 | Cc1c(C(=O)NCCCC(=O)NO)sc2ncnc(Nc3ccc(Cl)cc3)c12 [Compound 20c, 4–(4-chlorophenylamino)-N-(4-(hydroxyamino)-4-oxobutyl)-5-methylthieno[2,3-d]pyrimidine-6-carboxamide] | 105.2% and 105.24% | 103.8% and 103.83% | 104.4% and 104.46% | 99.4% and 99.45% | 102.6% and 102.62% | 108.7% and 108.77% | 98.8% and 98.83% | 101.19% | 111.8% and 111.83% | 105.5% | 112.5% and 112.53% | 100.0% and 100.04% | 91% | 96% | 3% | 
2 | Cc1c(C(=O)NCCCC(=O)NO)sc2ncnc(Nc3ccc(F)c(Cl)c3)c12 [Compound 20d, 4–(3-chloro-4-fluorophenylamino)-N-(4-(hydroxyamino)-4-oxobutyl)-5-methylthieno[2,3-d]pyrimidine-6-carboxamide] | 112.6% and 112.64% | 101.6% and 101.67% | 94.0% and 94.08% | 99.9% and 99.99% | 110.0% and 110.02% | 109.8% and 109.84% | 93.7% and 93.74% | 101.9% | 118.7% and 118.75% | 99.6% and 99.61% | 115.8% and 115.88% | 103.5% and 103.55% | 96% | 97% | 0% | inhibition at 0.0001 µM (EGFR; 0.1 nM compound, 10 μM ATP, read-out: % Inhibition mean, EGFR (ErbB1)): 1%; inhibition at 0.001 µM (EGFR; 1 nM compound, 10 μM ATP, read-out: % Inhibition mean, EGFR (ErbB1)): 5%; inhibition at 0.01 µM (EGFR; 10 nM compound, 10 μM ATP, read-out: % Inhibition mean, EGFR (ErbB1)): 14%; inhibition at 0.1 µM (EGFR; 100 nM compound, 10 μM ATP, read-out: % Inhibition mean, EGFR (ErbB1)): 58%; inhibition at 1 µM (EGFR; 1000 nM compound, 10 μM ATP, read-out: % Inhibition mean, EGFR (ErbB1)): 93%; IC50 (EGFR; read-out: IC50 in enzyme assays EGFR): 0.068 µM
